# Data: patent US11058688B2, “Imidazopiperazine inhibitors of transcription activating proteins” (Board of Regents, The University of Texas System, priority 2018, dated 2021)
# Assays:
# [1] = target: GST-CBP(1081-1197) bromodomain (Homo sapiens (Human), UniProt Q92793); assay: CBP AlphaScreen Assay; settings: binding to biotin-H4(1-21) Ac-K5/8/12/16 peptide
# Description: (§1) Specific binding of the CBP or BRD4 bromodomain to the acetylated peptide derived from the H4 histone substrate (tetra acetylated H4(1-21) Ac-K5/8/12/16) was measured in absence or presence of inhibitors.
# (§2) The standard dose response curves were fitted by Genedata Screener software using the variable-slope model: Signal=Signalnegative control+(SignalDMSO control−Signalnegative control)/(1+(IC50/Dose)^Hill slope).
# (§3) Only Signal and Dose in the equation were treated as known values.
# BRD4(49-170) bromodomain = BRD4(49-170) bromodomain (Homo sapiens (Human), UniProt O60885); assay: BRD4 AlphaScreen Assay; settings: binding to biotin-H4(1-21) Ac-K5/8/12/16 peptide
# Description: as §1, §2, §3
# GST-CBP(1081-1197) bromodomain, sequence (Q92793 1081-1197): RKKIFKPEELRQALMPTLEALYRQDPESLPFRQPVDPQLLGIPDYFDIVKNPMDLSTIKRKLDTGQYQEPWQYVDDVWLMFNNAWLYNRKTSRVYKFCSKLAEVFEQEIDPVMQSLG
Compound,IC50 [1] [nM],IC50 (BRD4(49-170) bromodomain) [nM]
"CC(=O)N1CCn2c(C3CC3)nc(-c3ccc4c(c3)c(-c3c(C)noc3C)nn4C)c2C1 [Example 30, 1-(3-Cyclopropyl-1-(3-(3,5-dimethylisoxazol-4-yl)-1-methyl-1H-indazol-5-yl)-5,6-dihydroimidazo[1,5-a]pyrazin-7(8H)-yl)ethan-1-one]",1180,> 25000
"CC(=O)N1CCC(c2nc(-c3ccc4c(c3)c(-c3cnn(C)c3)nn4C)c3n2CCN(C(C)=O)C3)CC1 [Example 53, 1-(4-(7-acetyl-1-(1-methyl-3-(1-methyl-1H-pyrazol-4-yl)-1H-indazol-5-yl)-5,6,7,8-tetrahydroimidazo[1,5-a]pyrazin-3-yl)piperidin-1-yl)ethan-1-one]",176,> 10000
"CNC(=O)N1CCn2c(C3CC(F)(F)C3)nc(-c3cccc4nc(-c5cnn(C)c5)c(C(F)(F)F)cc34)c2C1 [Example 20, 3-(3,3-Difluorocyclobutyl)-N-methyl-1-(2-(1-methyl-1H-pyrazol-4-yl)-3-(trifluoromethyl)quinolin-5-yl)-5,6-dihydroimidazo[1,5-a]pyrazine-7(8H)-carboxamide]",18,25000
"CC(=O)N1CCn2c(C3CCOCC3)nc(-c3ccc4c(c3)c(-c3cnn(C)c3)nn4C)c2C1 [Example 104, 1-(1-(1-methyl-3-(1-methyl-1H-pyrazol-4-yl)-1H-indazol-5-yl)-3-(tetrahydro-2H-pyran-4-yl)-5,6-dihydroimidazo[1,5-a]pyrazin-7(8H)-yl)ethan-1-one]",107,3730
"CNC(=O)N1CCn2c(C3CC3)nc(-c3cccc4nc(-c5cn(C)nc5C)c(C#N)cc34)c2C1 [Example 98, 1-(3-cyano-2-(1,3-dimethyl-1H-pyrazol-4-yl)quinolin-5-yl)-3-cyclopropyl-N-methyl-5,6-dihydroimidazo[1,5-a]pyrazine-7(8H)-carboxamide]",25,9580
"CC(=O)N1CCn2c(C3CCC3)nc(-c3ccc4c(c3)c(-c3cnn(C)c3)nn4C)c2C1 [Example 46, 1-(3-cyclobutyl-1-(1-methyl-3-(1-methyl-1H-pyrazol-4-yl)-1H-indazol-5-yl)-5,6-dihydroimidazo[1,5-a]pyrazin-7(8H)-yl)ethan-1-one]",52,> 10000
"CNC(=O)N1CCn2c(C3CCC(F)(F)CC3)nc(-c3c(F)ccc4cc(-c5cn(C)nc5C)ncc34)c2C1 [Example 81, 3-(4,4-difluorocyclohexyl)-1-(3-(1,3-dimethyl-1H-pyrazol-4-yl)-7-fluoroisoquinolin-8-yl)-N-methyl-5,6-dihydroimidazo[1,5-a]pyrazine-7(8H)-carboxamide]",11,10500
"CNC(=O)N1CCn2c(C3CC3(F)F)nc(-c3cccc4nc(-c5cnn(C)c5)c(C(F)F)cc34)c2C1 (stereo not shown) [Example 60, 3-(2,2-difluorocyclopropyl)-1-(3-(difluoromethyl)-2-(1-methyl-1H-pyrazol-4-yl)quinolin-5-yl)-N-methyl-5,6-dihydroimidazo[1,5-a]pyrazine-7(8H)-carboxamide]",18,15800
"CNC(=O)N1CCn2c(C3CC3)nc(-c3cccc4cc(N5CCOCC5)ncc34)c2C1 [Example 18, 3-cyclopropyl-N-methyl-1-(3-morpholinoisoquinolin-8-yl)-5,6-dihydroimidazo[1,5-a]pyrazine-7(8H)-carboxamide]",50,> 25000
"CNC(=O)N1CCn2c(C3CCOCC3)nc(-c3c(F)ccc4cc(-c5ccn(C)n5)ncc34)c2C1 [Example 94, 1-(7-fluoro-3-(1-methyl-1H-pyrazol-3-yl)isoquinolin-8-yl)-N-methyl-3-(tetrahydro-2H-pyran-4-yl)-5,6-dihydroimidazo[1,5-a]pyrazine-7(8H)-carboxamide]",12,> 25000
"CNC(=O)N1CCn2c(C3CC(F)(F)C3)nc(-c3cccc4nc(-c5cnn(C)c5)c(C#N)cc34)c2C1 [Example 67, 1-(3-cyano-2-(1-methyl-1H-pyrazol-4-yl)quinolin-5-yl)-3-(3,3-difluorocyclobutyl)-N-methyl-5,6-dihydroimidazo[1,5-a]pyrazine-7(8H)-carboxamide]",36,> 25000
"CNC(=O)N1CCn2c(C3CCNCC3)nc(-c3ccc4c(c3)c(-c3cnn(C)c3)nn4C)c2C1 [Example 52, N-methyl-1-(1-methyl-3-(1-methyl-1H-pyrazol-4-yl)-1H-indazol-5-yl)-3-(piperidin-4-yl)-5,6-dihydroimidazo[1,5-a]pyrazine-7(8H)-carboxamide]",20,> 10000
"CC(=O)N1CCn2c(C3CC3)nc(N3CCCc4cc(-c5c(C)noc5C)ccc43)c2C1 [Example 111, 1-(3-cyclopropyl-1-(6-(3,5-dimethylisoxazol-4-yl)-3,4-dihydroquinolin-1(2H)-yl)-5,6-dihydroimidazo[1,5-a]pyrazin-7(8H)-yl)ethan-1-one]",1450,10300
"CNC(=O)N1CCn2c(C3CC(F)(F)C3)nc(-c3cccc4cc(-c5cn(C)nc5C)ncc34)c2C1 [Example 71, 3-(3,3-difluorocyclobutyl)-1-(3-(1,3-dimethyl-1H-pyrazol-4-yl)isoquinolin-8-yl)-N-methyl-5,6-dihydroimidazo[1,5-a]pyrazine-7(8H)-carboxamide]",38,13400
"CNC(=O)N1CCn2c(C3CCC(F)(F)CC3)nc(-c3cccc4cc(N5CCOCC5)ncc34)c2C1 [Example 74, 3-(4,4-difluorocyclohexyl)-N-methyl-1(3-morpholinoisoquinolin-8-yl)-5,6-dihydroimidazo[1,5-a]pyrazine-7(8H)-carboxamide]",4,> 25000

# Continued by falling IC50 [1], values first:
IC50 [1] [nM],IC50 (BRD4(49-170) bromodomain) [nM],Compound
1280,> 25000,"CC(=O)N1CCn2c(C3CC3)nc(N3CCCc4cc(-c5cnn(Cc6ccccn6)c5)ccc43)c2C1 [Example 116, 1-(3-cyclopropyl-1-(6-(1-(pyridin-2-ylmethyl)-1H-pyrazol-4-yl)-3,4-dihydroquinolin-1(2H)-yl)-5,6-dihydroimidazo[1,5-a]pyrazin-7(8H)-yl)ethan-1-one]"
49,> 10000,"CNC(=O)N1CCn2c(C3CC(F)(F)C3)nc(-c3cccc4nc(-c5cnn(C)c5)c(C(F)F)cc34)c2C1 [Example 58, 3-(3,3-difluorocyclobutyl)-1-(3-(difluoromethyl)-2-(1-methyl-1H-pyrazol-4-yl)quinolin-5-yl)-N-methyl-5,6-dihydroimidazo[1,5-a]pyrazine-7(8H)-carboxamide]"
47,> 10000,"CC(=O)N1CCn2c(C3CC3)nc(-c3ccc4c(c3)c(-c3cnn(C)c3)nn4C)c2C1 [Example 1, 1-(3-cyclopropyl-1-(1-methyl-3-(1-methyl-1H-pyrazol-4-yl)-1H-indazol-5-yl)-5,6-dihydroimidazo[1,5-a]pyrazin-7(8H)-yl)ethan-1-one]"
39,17100,"CNC(=O)N1Cc2c(-c3cccc4cc(-c5cnn(C)c5)ncc34)nc(C3CC3)n2C(C)C1 (stereo not shown) [Example 126, 3-cyclopropyl-N,5-dimethyl-1-(3-(1-methyl-1H-pyrazol-4-yl)isoquinolin-8-yl)-5,6-dihydroimidazo[1,5-a]pyrazine-7(8H)-carboxamide]"
32,19800,"CNC(=O)N1CCn2c(C3CC3)nc(-c3c[nH]c4cc(-c5cnn(C)c5)ncc34)c2C1 [Example 38, 3-Cyclopropyl-N-methyl-1-(6-(1-methyl-1H-pyrazol-4-yl)-1H-pyrrolo[3,2-c]pyridin-3-yl)-5,6-dihydroimidazo[1,5-a]pyrazine-7(8H)-carboxamide]"
19,> 25000,"CNC(=O)N1CCn2c(C3CCOCC3)nc(-c3cccc4nc(-c5cnn(C)c5)c(C(F)F)cc34)c2C1 [Example 123, 1-(3-(difluoromethyl)-2-(1-methyl-1H-pyrazol-4-yl)quinolin-5-yl)-N-methyl-3-(tetrahydro-2H-pyran-4-yl)-5,6-dihydroimidazo[1,5-a]pyrazine-7(8H)-carboxamide]"
16,19400,"CNC(=O)N1CCn2c(C3CCOCC3)nc(-c3c(F)ccc4cc(C5CCOCC5)ncc34)c2C1 [Example 83, 1-(7-fluoro-3-(tetrahydro-2H-pyran-4-yl)isoquinolin-8-yl)-N-methyl-3-(tetrahydro-2H-pyran-4-yl)-5,6-dihydroimidazo[1,5-a]pyrazine-7(8H)-carboxamide]"
11,8710,"CNC(=O)c1ccc(-c2nc3cccc(-c4nc(C5CC5)n5c4CN(C(=O)NC)CC5)c3cc2C#N)cn1 [Example 99, 1-(3-cyano-2-(6-(methylcarbamoyl)pyridin-3-yl)quinolin-5-yl)-3-cyclopropyl-N-methyl-5,6-dihydroimidazo[1,5-a]pyrazine-7(8H)-carboxamide]"
4,7950,"CNC(=O)N1CCn2c(C3CC3)nc(-c3cccc4nc(-c5cnc(C)s5)c(C#N)cc34)c2C1 [Example 100, 1-(3-cyano-2-(2-methylthiazol-5-yl)quinolin-5-yl)-3-cyclopropyl-N-methyl-5,6-dihydroimidazo[1,5-a]pyrazine-7(8H)-carboxamide]"
3,11900,"CNC(=O)N1CCn2c(C3CCC(F)(F)CC3)nc(-c3cccc4cc(-c5cn(C)nc5C)ncc34)c2C1 [Example 76, 3-(4,4-difluorocyclohexyl)-1-(3-(1,3-dimethyl-1H-pyrazol-4-yl)isoquinolin-8-yl)-N-methyl-5,6-dihydroimidazo[1,5-a]pyrazine-7(8H)-carboxamide]"
1,5970,"CNC(=O)c1ccc(-c2cc3cccc(-c4nc(C5CCOCC5)n5c4CN(C(=O)NC)CC5)c3cn2)cn1 [Example 57, N-methyl-1-(3-(6-(methylcarbamoyl)pyridin-3-yl)isoquinolin-8-yl)-3-(tetrahydro-2H-pyran-4-yl)-5,6-dihydroimidazo[1,5-a]pyrazine-7(8H)-carboxamide]"
